Test results as given in paper PMC6986439, “Sultiame pharmacokinetic profile in plasma and erythrocytes after single oral doses: A pilot study in healthy volunteers” (Pharmacology Research & Perspectives, 2020).

Legend:
erythrocytes = test: In vitro competition studies with zonisamide and topiramate in whole blood; assay type: in vitro ADME, human; details: not influenced by the addition of sultiame; data not shown
Method: In addition, competition studies were performed with two other antiepileptic agents known for their affinity for CA (zonisamide and topiramate), added at equimolar concentration to 20 mg/L of sultiame. Similar ranges of inhibition constants for CA II were reported in the literature for these three substances.13 Samples (1 mL) were drawn before and at 2, 4, 6, 8, 10, 15, 20, 30, 45, 60, and 120 min after addition of the competitor. Sultiame, zonisamide, and topiramate concentrations were then analyzed. All samples were centrifuged at 18 620 g for 1 minutes at 4°C. Plasma, erythrocyte, and urine fractions were stored separately at − 80°C prior to analysis for a maximum of 9 months. For analysis, plasma and hemolyzed erythrocytes samples were subjected to protein precipitation with MeOH containing the internal‐standard sultiame D4 and quantified with the previously described HPLC‐MS/MS method, using matrix‐matched calibration and quality controls. The sultiame concentrations determined in erythrocytes were corrected for the 10% interstitial plasma remnant in the erythrocyte fraction after centrifugation.14

[1] = parameters: method as in earlier work; details: main metabolite identified in urines ref 8; cited from earlier work

## CC1(C)O[C@@H]2[C@@H](CO[C@@]3(COS(N)(=O)=O)OC(C)(C)O[C@@H]23)O1 [topiramate]
erythrocytes
  erythrocyte/plasma ratio: ~1

## hydroxy‐sultiame
[1]
  activity of metabolite: inactive
